Experimental findings from patent US8410289B2, “Spirocyclic 3'-alkoxytetramic acids and-tetronic acids” (Bayer Cropscience AG, priority 2004, dated 2013) are described below.

The structures appear in SMILES notation.

One data set in a line: log P determination by HPLC on reverse-phase column (C 18), EEC-Directive 79/831 Annex V.A8. Format: physicochemical. Conditions: HPLC reverse-phase C 18, acidic range pH 2.3, 43° C. On the procedure: • The log P values given in the tables and preparation examples above are determined in accordance with EEC-Directive 79/831 Annex V.A8 by HPLC (High Performance Liquid Chromatography) on a reverse-phase column (C 18). Temperature: 43° C.
The determination is carried out in the acidic range at pH 2.3 using the mobile phases 0.1% aqueous phosphoric acid and acetonitrile; linear gradient from 10% acetonitrile to 95% acetonitrile.
The LC-MS determination in the acidic range is carried out at pH 2.7 using the mobile phases 0.1% aqueous formic acid and acetonitrile (contains 0.1% formic acid); linear gradient from […] acetonitrile to 95% acetonitrile.
The LC-MS determination in the neutral range is carried out at pH 7.8 using the mobile phases 0.001 molar aqueous ammonium bicarbonate solution and acetonitrile; linear gradient from 10% acetonitrile to 95% acetonitrile.
The calibration is carried out using unbranched alkan-2-ones (with 3 to 16 carbon atoms) with known log P values (determination of the log P values by retention times using linear interpolation between two successive alkanones).
`COC1CCCC2(C1)OC(=O)C(c1cc(-c3ccc(Cl)cc3)c(C)cc1C)=C2OC(=O)OC(C)C` (stereo not shown) [Example I-2-c-2] registered a logP of 5.32.
Still for that read-out and setting: with `COC1CCCC2(C1)OC(=O)C(c1c(C)cc(C)cc1C)=C2OC(=O)OC(C)C` (stereo not shown) [Example I-2-c-3] the figure was 4.17.
With `COC1CCCC2(C1)OC(=O)C(c1c(C)cc(C)cc1C)=C2OC(=O)OC(C)C` (stereo not shown) [Example I-2-c-4], the logP was found to be 4.34.
On to `COc1cc(C)cc(C)c1C1=C(OC(=O)OC(C)C)C2(CCCC(OC)C2)OC1=O` (stereo not shown) [Example I-2-c-5], for which the logP was 3.75.

Staying with this data set, now noted: compounds of formula (I-2-a); generally isomer mixtures; those marked 1) were separated into cis and trans diastereomers.
Consider `COC1CCCC2(C1)OC(=O)C(c1cc(-c3ccc(Cl)cc3)c(C)cc1C)=C2O` (mixture of isomers) [Example I-2-a-2], for which the logP was determined as 3.4.
For `CCc1cc(Br)cc(CC)c1C1=C(O)C2(CCCC(OC)C2)OC1=O` (mixture of isomers) [Example I-2-a-3], the logP came out at 2.98.
As to `COC1CCCC2(C1)OC(=O)C(c1c(C)cc(Cl)cc1Br)=C2O` (mixture of isomers) [Example I-2-a-4], the logP came out at 2.46.
The same measure, in the same setting: to `COC1CCCC2(C1)OC(=O)C(c1cc(C)ccc1C)=C2O` (mixture of isomers) [Example I-2-a-35] belongs 2.15; to `COC1CCCC2(C1)OC(=O)C(c1ccc(Cl)cc1Br)=C2O` (mixture of isomers) [Example I-2-a-36], 2.25; to `COC1CCCC2(C1)OC(=O)C(c1ccc(Br)cc1Cl)=C2O` (mixture of isomers) [Example I-2-a-37], 2.31.
On to `COC1CCCC2(C1)OC(=O)C(c1ccc(Cl)cc1Cl)=C2O` (mixture of isomers) [Example I-2-a-39], for which the lipophilicity (logP) came to 2.21.
As for `COC1CCCC2(C1)OC(=O)C(c1c(C)ccc(-c3ccc(Cl)cc3)c1C)=C2O` (mixture of isomers) [Example I-2-a-42], the logP was 3.29.
Still for that read-out and setting: with `COC1CCCC2(C1)OC(=O)C(c1cc(F)c(C)cc1C)=C2O` (mixture of isomers) [Example I-2-a-45] the figure was 2.25.
The same measure, in the same setting: to `COC1CCCC2(C1)OC(=O)C(c1c(C)ccc(Cl)c1C)=C2O` (mixture of isomers) [Example I-2-a-46] belongs 2.42.
The same measure, in the same setting: with `COC1CCCC2(C1)OC(=O)C(c1c(C)cc(Br)c(C)c1Br)=C2O` (mixture of isomers) [Example I-2-a-47] the figure was 2.78; with `COC1CCCC2(C1)OC(=O)C(c1cc(C)ccc1Br)=C2O` (mixture of isomers) [Example I-2-a-49], 2.16; with `COc1ccc(C2=C(O)C3(CCCC(OC)C3)OC2=O)c(C)c1` (mixture of isomers) [Example I-2-a-50], 2.21.
Regarding `COC1CCCC2(C1)OC(=O)C(c1c(Cl)ccc(C)c1Cl)=C2O` (mixture of isomers) [Example I-2-a-52], the logP is on record as 2.23.
Turning to `COC1CCCC2(C1)OC(=O)C(c1c(C)cc(C)c(-c3ccc(Cl)cc3)c1C)=C2O` (mixture of isomers) [I-2-a-30], the lipophilicity (logP) amounted to 3.60.
Still for that read-out and setting: with `COC1CCCC2(C1)OC(=O)C(c1ccccc1Cl)=C2O` (mixture of isomers) [I-2-a-38] the figure was 1.86; with `COC1CCCC2(C1)OC(=O)C(c1cc(Cl)c(Br)cc1Cl)=C2O` (mixture of isomers) [I-2-a-40], 2.53.
On the same count and under the same terms, with `COC1CCCC2(C1)OC(=O)C(c1c(C)cc(C)c(Br)c1C)=C2O` (mixture of isomers) [I-2-a-41] the figure was 2.70; with `COC1CCCC2(C1)OC(=O)C(c1cc(C)c(Cl)cc1C)=C2O` (mixture of isomers) [I-2-a-43], 2.47.
Still for that read-out and setting: with `COC1CCCC2(C1)OC(=O)C(c1cc(F)c(C)cc1Br)=C2O` (mixture of isomers) [I-2-a-44] the figure was 2.25; with `COC1CCCC2(C1)OC(=O)C(c1cc(Cl)c(C)cc1Cl)=C2O` (mixture of isomers) [I-2-a-48], 2.47.
In the case of `COC1CCCC2(C1)OC(=O)C(c1cc(Br)ccc1Br)=C2O` (mixture of isomers) [I-2-a-51], the logP came out at 2.27.
The same measure, in the same setting: to `COC1CCCC2(C1)OC(=O)C(c1ccc(Cl)cc1C)=C2O` (single isomer, unassigned) [Example I-2-a-6] belongs 2.19; to `COC1CCCC2(C1)OC(=O)C(c1ccc(Cl)cc1C)=C2O` (single isomer, unassigned) [Example I-2-a-8], 2.11.
Still for that read-out and setting: with `COC1CCCC2(C1)OC(=O)C(c1c(C)cc(C)cc1C)=C2O` (single isomer, unassigned) [Example I-2-a-14] the figure was 2.31^1); with `COc1cc(C)cc(C)c1C1=C(O)C2(CCCC(OC)C2)OC1=O` (single isomer, unassigned) [Example I-2-a-16], 2.10^1); with `COC1CCCC2(C1)OC(=O)C(c1cc(-c3ccc(Cl)cc3)ccc1C)=C2O` (single isomer, unassigned) [Example I-2-a-32], 3.19^1).
The same measure, in the same setting: to `COC1CCCC2(C1)OC(=O)C(c1c(Cl)cc(C)cc1Br)=C2O` (stereo not shown) [Example I-2-a-5] belongs 2.40.
As for `COC1CCCC2(C1)OC(=O)C(c1ccccc1C)=C2O` (stereo not shown) [Example I-2-a-7], the logP is on record as 1.81.
Same read-out and setting: to `COC1CCCC2(C1)OC(=O)C(c1cc(C)c(C)cc1Br)=C2O` (stereo not shown) [Example I-2-a-9] belongs 2.35.
The same measure, in the same setting: to `COC1CCCC2(C1)OC(=O)C(c1c(C)cc(Br)cc1C)=C2O` (stereo not shown) [Example I-2-a-10] belongs 2.40; to `COC1CCCC2(C1)OC(=O)C(c1cc(C)c(C)cc1C)=C2O` (stereo not shown) [Example I-2-a-11], 2.21.
On the same count and under the same terms, with `COC1CCCC2(C1)OC(=O)C(c1c(C)cc(C)c(C)c1C)=C2O` (stereo not shown) [Example I-2-a-12] the figure was 2.50.
`CCc1cc(Br)cc(C)c1C1=C(O)C2(CCCC(OC)C2)OC1=O` (stereo not shown) [Example I-2-a-13]: the log partition coefficient (logP) is on record as 2.74.
Turning to `COC1CCCC2(C1)OC(=O)C(c1c(Cl)cccc1Cl)=C2O` (stereo not shown) [Example I-2-a-15], the logP came to 1.93.
Turning to `CCOC1CCCC2(C1)OC(=O)C(c1c(C)cc(-c3ccc(Cl)cc3)cc1CC)=C2O` (stereo not shown) [Example I-2-a-17], the logP amounted to 4.19.
Same read-out and setting: with `COC1CCCC2(C1)OC(=O)C(c1cc(C)c(Br)cc1Br)=C2O` (stereo not shown) [Example I-2-a-18] the figure was 2.58; with `COC1CCCC2(C1)OC(=O)C(c1c(C)cc(Cl)cc1Cl)=C2O` (stereo not shown) [Example I-2-a-20], 2.41; with `COC1CCCC2(C1)OC(=O)C(c1c(Cl)cc(C)cc1Cl)=C2O` (stereo not shown) [Example I-2-a-21], 2.27.
As for `COC1CCCC2(C1)OC(=O)C(c1ccc(C)cc1Cl)=C2O` (stereo not shown) [Example I-2-a-22], the lipophilicity (logP) is given as 2.13.
The same measure, in the same setting: to `CCc1cc(Br)cc(Br)c1C1=C(O)C2(CCCC(OC)C2)OC1=O` (stereo not shown) [Example I-2-a-26] belongs 2.77; to `COC1CCCC2(C1)OC(=O)C(c1c(C)cc(C)cc1Cl)=C2O` (stereo not shown) [Example I-2-a-27], 2.31.
For the compound `COC1CCCC2(C1)OC(=O)C(c1c(C)cc(C)cc1Br)=C2O` (stereo not shown) [Example I-2-a-28], the logP was found to be 2.36.
As to `CCc1cc(Cl)c(C2=C(O)C3(CCCC(OC)C3)OC2=O)c(Br)c1` (stereo not shown) [Example I-2-a-29], the logP worked out at 2.62.
On to `COC1CCCC2(C1)OC(=O)C(c1cc(-c3ccc(Cl)cc3)ccc1Cl)=C2O` (stereo not shown) [Example I-2-a-31], for which the logP was found to be 3.14.
The same measure, in the same setting: to `COC1CCCC2(C1)OC(=O)C(c1cc(-c3cccc(Cl)c3)ccc1C)=C2O` (stereo not shown) [Example I-2-a-33] belongs 3.16; to `COC1CCCC2(C1)OC(=O)C(c1cc(-c3cccc(Cl)c3)ccc1Cl)=C2O` (stereo not shown) [Example I-2-a-34], 3.11; to `COC1CCCC2(C1)OC(=O)C(c1c(C)cc(C)c(F)c1C)=C2O` (stereo not shown) [Example I-2-a-54], 2.45.

The same data set, now with this note: compounds of formula (I-2-b); isomer (cis, trans or α + β about 1:1); two values for α + β mixtures.
Take `COC1CCCC2(C1)OC(=O)C(c1cc(-c3ccc(Cl)cc3)c(C)cc1C)=C2OC(=O)C(C)C` (stereo not shown) [Example I-2-b-2]: the logP was found to be 5.25.
Same read-out and setting: with `COC1CCCC2(C1)OC(=O)C(c1c(C)cc(C)cc1C)=C2OC(=O)C(C)C` (stereo not shown) [Example I-2-b-3] the figure was 4.32; with `COC1CCCC2(C1)OC(=O)C(c1c(C)cc(C)cc1C)=C2OC(=O)C(C)C` (stereo not shown) [Example I-2-b-4], 4.15.
Take `COc1cc(C)cc(C)c1C1=C(OC(=O)C(C)C)C2(CCCC(OC)C2)OC1=O` (stereo not shown) [Example I-2-b-5]: the log partition coefficient (logP) is 3.90.
Still for that read-out and setting: with `COc1cc(C)cc(C)c1C1=C(OC(=O)C(C)C)C2(CCCC(OC)C2)OC1=O` (stereo not shown) [Example I-2-b-6] the figure was 3.75.

Still in this data set, the particulars now being: compounds of formula (II); two values where an α/β isomer mixture is given.
For the compound `CCc1cc(C)cc(Br)c1CC(=O)NC1(C(=O)OC)CCCC(OCCOC)C1` (single isomer, unassigned) [II-28], the “log P” value is reported as “log P 3.64”.

Still in this data set, the particulars now being: reverse-phase HPLC column (C 18); HPLC, reverse-phase column (C 18), 43° C.
Take `CCCCOC1CCCC2(C1)OC(=O)C(c1c(C)cc(C)cc1C)=C2O` (stereo not shown) [Example I-2-a-1]: the chromatographic logP is 3.57.
On the same count and under the same terms, to `CO[C@H]1CCC[C@]2(C1)OC(=O)C(c1cc(-c3ccc(Cl)cc3)c(C)cc1C)=C2OC(=O)C(C)C` [Example I-2-b-1] belongs 5.37.
The same measure, in the same setting: to `CO[C@H]1CCC[C@@]2(C1)OC(=O)C(c1cc(-c3ccc(Cl)cc3)c(C)cc1C)=C2OC(=O)OC(C)C` [Example I-2-c-1] belongs 5.21.

As a reminder, the logP is the decadic logarithm of the partition coefficient of the neutral form, usually between octanol and water. As a reminder, the chromatographic logP is a lipophilicity value derived from retention on a column. Higher therefore signals a more lipophilic compound.
